Like-named read-outs stand apart in the source and are kept apart here. Marks after values point to notes of the source that are not given here.
Legend:
[1] = test system: third instar T. ni larvae; experiment: Leaf disk choice feeding deterrence bioassay; type: in vivo, Trichoplusia ni; details: for pest or weed control at 50 µg/cm2, 50 µg/cm2 / pest or weed control at 50 µg/cm2: Trichoplusia, foliar; for pest or weed control at 50 µg/cm2: feeding deterrence (FD), Table 12, non-toxic feeding deterrents, read-out: % deterrence; for DC50: feeding deterrence DC50, unit not given in Table 12; for Feeding deterrency: Table 6 summary class
Text: Cabbage plants (Brassica oleraceae var. Stonehead) used in the bioassays were routinely grown in plastic pots with a mixture of sandy loam soil and peat moss (4:1) in a greenhouse at the University of British Columbia, Vancouver, BC, Canada. Leaves were collected from cabbage plants that were 5-6 weeks old.
T. ni larvae and moths were obtained from a long established colony (>50 generations) maintained on an artificial diet, Velvetbean Caterpillar Diet No. F9796 [Bio-Sery Inc. (Frenchtown, NIL)] in the insectary of the University of British Columbia (UBC).
(§1) Initial screening for feeding deterrent effects was conducted at 50 μg/cm^2 in feeding deterrent bioassays.
Larvae were given the choice of feeding on two leaf disks, one treated with 10 μL of a solution of the test substance painted on each side and the other treated with a carrier solvent alone. The number of larvae was 25 per treatment.
Feeding deterrence data (percent) for initial screening concentration were analyzed by analysis of variance (ANOVA) after arcsin transformation using statistics software (Statistix 7. Analytical Software, Statistix 7 for Windows 95, 98, NT, 2000. Analytical Software, Tallahassee).

[2] = test system: third instar T. ni larvae; experiment: whole plant or invertebrate; details: for mortality at 0.25 %: Trichoplusia, topical, 24 h
Procedure: as §1
Mortality was determined 24 h after spraying larvae directly with test solutions. Third instar T. ni larvae were sprayed in 90 mm×15 mm Petri dishes (Falcon) lined with Fisher Scientific filter paper (90 mm diameter). Small plastic hand spraying bottles (50 mL capacity) were used. Larvae were then transferred to Petri dishes (90 mm×15 mm) with a small piece of artificial diet. Each Petri dish contained 10 larvae. Three replicates, each consisting of 10 larvae, were used per treatment.

T. ni moths = experiment: Oviposition choice (deterrence) bioassay on cabbage leaves; type: in vivo, Trichoplusia ni; details: for pest or weed control at 0.25 %: Trichoplusia, read-out: OD (%), mean ± SE (n = 25-33); for % deterrence / Index = deterrence/mortality: Table 11; for % deterrence: BL mark not explained; for Index = deterrence/mortality: oviposition deterrence divided by mortality; for Oviposition deterrency: Table 6 summary class, 0.25%
Procedure: as §1
T. ni larvae were reared on normal diet from neonates (<24 h old) until pupation. Pupae were sexed and put in separate plastic containers until emergence. After eclosion, pairs of moths (one male and one female) were introduced into each cage with a control and a treated cabbage leaf. Pairs of moths (n=25) were used per treatment. Each leaf (approximately 100-110 cm^2) was sprayed with 0.5 mL of MeOH or a methanolic solution of the test chemical on each side. Eggs were counted on each cabbage leaf after 48 h.

[3] = Table 5, 1,2-dialkoxybenzenes, feeding deterrence at 50 μg/cm^2, read-out: FD (%), mean ± SE (n = 25)
[4] = Table 4, 1,3-dialkoxybenzenes, feeding deterrence at 50 μg/cm^2, read-out: FD (%), mean (SE (n = 25))
[5] = Table 3, 1,4-dialkoxybenzenes, feeding deterrence at 50 μg/cm^2
[6] = Table 3, 1,4-dialkoxybenzenes, feeding deterrence at 50 μg/cm^2, read-out: FD (%), mean ± SE (n = 25)
[7] = Table 8, 50 μg/cm^2, read-out: F.D (%) Mean ± SE N = 25
[8] = read-out: Mortality (%) N = 3 × 10, Table 8, at 0.25%
[9] = contact toxicity to larvae, negative or zero values replaced by 0.1 for the index (footnote b)
[10] = 48 h, Table 5, oviposition deterrence at 0.25%, 48 h
[11] = read-out: mortality (%) (n = 3 × 10), Table 5, at 0.25%
[12] = 48 h, Table 4, oviposition deterrence at 0.25%, 48 h
[13] = read-out: mortality (%) (n = 3 × 10), Table 4, at 0.25%
[14] = oviposition deterrence at 0.25%
[15] = 48 h, Table 3, oviposition deterrence at 0.25%, 48 h
[16] = read-out: mortality (%) (n = 3 × 10), Table 3, at 0.25%

## COc1ccccc1O [1-hydroxy-2-methoxybenzene]
[1]; [3]
  pest or weed control at 50 µg/cm2, 50 µg/cm2: -7.5%

## CCOc1ccccc1O [2a{2}, 2-Ethoxy phenol]
[1]; [3]
  pest or weed control at 50 µg/cm2, 50 µg/cm2: -5.3%

## CCCOc1ccccc1O [2a{3}, 2-Propoxy phenol]
[1]; [3]
  pest or weed control at 50 µg/cm2, 50 µg/cm2: -12 ± 20%

## CCCCOc1ccccc1O [2a{4}, 2-Butoxy phenol]
[1]; [3]
  pest or weed control at 50 µg/cm2, 50 µg/cm2: 12 ± 20.3%

## C=CCOc1ccccc1O [2a{6}, 2-Allyloxy phenol]
[1]; [3]
  pest or weed control at 50 µg/cm2, 50 µg/cm2: 31.1 ± 15.5%

## COc1cccc(O)c1 [2b{1}, 3-Methoxy phenol]
[1]; [4]
  pest or weed control at 50 µg/cm2, 50 µg/cm2: 44.7 ± 17.5%

## CCOc1cccc(O)c1 [2b{2}, 3-Ethoxy phenol]
[1]; [4]
  pest or weed control at 50 µg/cm2, 50 µg/cm2: -18.7 ± 17.8%

## CCCOc1cccc(O)c1 [2b{3}, 3-Propoxy phenol]
[1]; [4]
  pest or weed control at 50 µg/cm2, 50 µg/cm2: 4 ± 20.4%

## CC(C)CCOc1cccc(O)c1 [2b{4}, 3-(3-Methyl-butyloxy)phenol]
[1]; [4]
  pest or weed control at 50 µg/cm2, 50 µg/cm2: -5.8 ± 18.7%

## COc1ccc(O)cc1 [2c{1}, 4-Methoxy phenol]
[1]; [5]
  FD (%), mean ± SE (n = 25): feeding stimulants
[1]; [6]
  pest or weed control at 50 µg/cm2, 50 µg/cm2: -26.5 ± 18.6%

## CCOc1ccc(O)cc1 [2c{2}, 4-Ethoxy phenol]
[1]; [5]
  FD (%), mean ± SE (n = 25): weak feeding deterrent
[1]; [6]
  pest or weed control at 50 µg/cm2, 50 µg/cm2: 29.8 ± 18.2%

## CCCOc1ccc(O)cc1 [2c{3}, 4-Propoxy phenol]
[1]; [5]
  FD (%), mean ± SE (n = 25): feeding stimulants
[1]; [6]
  pest or weed control at 50 µg/cm2, 50 µg/cm2: -28 ± 18.4%

## CC(C)CCOc1ccc(O)cc1 [2c{5}, 4-(3-Methyl-butyloxy)phenol]
[1]; [6]
  pest or weed control at 50 µg/cm2, 50 µg/cm2: 29.5 ± 16.6%

## COc1ccccc1OC [3a{1,1}, 1,2-Dimethoxy benzene]
[1]; read-out: FD (%), mean ± SE (n = 25)
  pest or weed control at 50 µg/cm2, 50 µg/cm2: 26 ± 17.6%

## CCOc1ccccc1OCC [3a{2,2}, 1,2-Diethoxy benzene]
[1]; [3]
  pest or weed control at 50 µg/cm2, 50 µg/cm2: -2.1%

## CCCOc1ccccc1OCCC [3a{3,3}, 1,2-Dipropoxy benzene]
[1]; [3]
  pest or weed control at 50 µg/cm2, 50 µg/cm2: 26.2 ± 17.6%

## C=CCOc1ccccc1OCCC [3a{3, 6}, 1-allyloxy-2-propoxybenzene]
[1]; [7]
  pest or weed control at 50 µg/cm2, 50 µg/cm2: 96 ± 3%
[1]
  pest or weed control at 50 µg/cm2: 96%
  DC50: 12-16 ^a μg/cm^2
[2]; [8]
  mortality at 0.25 %: 17%
[2]; [9]
  % mortality: 10-17 ^a %

## CCCCOc1ccccc1OCCCC [3a{4,4}, 1,2-Dibutoxy benzene]
[1]; [3]
  pest or weed control at 50 µg/cm2, 50 µg/cm2: 56.4 ± 13.8%
T. ni moths; [10]
  pest or weed control at 0.25 %: 19.6%
[2]; [11]
  mortality at 0.25 %: 10%

## CC(C)CCOc1ccccc1OCCC(C)C [3a{5,5}, 1,2-Di-(3-methyl-butyloxy)benzene]
[1]; [3]
  pest or weed control at 50 µg/cm2, 50 µg/cm2: 69.9 ± 11.5%
T. ni moths; [10]
  pest or weed control at 0.25 %: 11.5%
[2]; [11]
  mortality at 0.25 %: 40%

## C=CCOc1ccccc1OCC=C [3a{6,6}, 1,2-Diallyloxy benzene]
[1]; [3]
  pest or weed control at 50 µg/cm2, 50 µg/cm2: 70.4 ± 13.2%
T. ni moths; [10]
  pest or weed control at 0.25 %: 15%
[2]; [11]
  mortality at 0.25 %: 20%

## COc1cccc(OC)c1 [3b{1,1}, 1,3-Dimethoxy benzene]
[1]; [4]
  pest or weed control at 50 µg/cm2, 50 µg/cm2: 20.4 ± 19.1%

## CCOc1cccc(OCC)c1 [3b{2,2}, 1,3-Diethoxy benzene]
[1]; [4]
  pest or weed control at 50 µg/cm2, 50 µg/cm2: 89.4 ± 8.3%
[1]
  pest or weed control at 50 µg/cm2: 89%
  DC50: 29 μg/cm^2
T. ni moths; [12]
  pest or weed control at 0.25 %: 3.4%
[2]; [13]
  mortality at 0.25 %: 36.7%
[2]; [9]
  % mortality: 37%

## CCCOc1cccc(OCCC)c1 [3b{3,3}, 1,3-Dipropoxy benzene]
[1]; [4]
  pest or weed control at 50 µg/cm2, 50 µg/cm2: 96.9 ± 3.1%
[1]
  pest or weed control at 50 µg/cm2: 97%
  DC50: 27 μg/cm^2
T. ni moths; [12]
  pest or weed control at 0.25 %: 33%
[2]; Table 4, concentration causing 50% mortality
  LC50: 0.16%
[2]; [13]
  mortality at 0.25 %: 76.7%
[2]; [9]
  % mortality: 77%

## CC(C)CCOc1cccc(OCCC(C)C)c1 [3b{5,5}, 1,3-Di-(3-methyl-butyloxy)benzene]
[1]; [4]
  pest or weed control at 50 µg/cm2, 50 µg/cm2: -12.2 ± 18.8%

## COc1ccc(OC)cc1 [3c{1,1}, 1,4-Dimethoxy benzene]
[1]; [6]
  pest or weed control at 50 µg/cm2, 50 µg/cm2: 9.9 ± 18%

## C=CCOc1ccc(OC)cc1 [3c{1, 6}, 1-allyloxy-4-methoxybenzene]
[1]; [7]
  pest or weed control at 50 µg/cm2, 50 µg/cm2: 62 ± 15%
[2]; [8]
  mortality at 0.25 %: 6%

## CCOc1ccc(OCC)cc1 [3c{2, 2}, 1,4-Diethoxy benzene]
[1]; [6]
  pest or weed control at 50 µg/cm2, 50 µg/cm2: 80.8 ± 11.3%
[1]
  pest or weed control at 50 µg/cm2: 81%
  DC50: 26 μg/cm^2
T. ni moths; Table 3, oviposition deterrence at 0.25%, 48 h
  OD (%), mean ± SE (n = 25-33): 74.7 ± 13.3a %
T. ni moths; [14]
  % deterrence: 75%
T. ni moths
  Index = deterrence/mortality: 0.75
T. ni moths; [15]
  pest or weed control at 0.25 %: 74.7%
[2]; Table 3, concentration causing 50% mortality compared with the control
  LC50: 0.03%
[2]; Table 11, at 0.25%
  % mortality: 100%
[2]; [16]
  mortality at 0.25 %: 100%
[2]; [9]
  % mortality: 100%

## CCCOc1ccc(OCCC)cc1 [3c{3,3}, 1,4-Dipropoxy benzene]
[1]; [6]
  pest or weed control at 50 µg/cm2, 50 µg/cm2: 96 ± 2.8%
[1]
  pest or weed control at 50 µg/cm2: 96%
  DC50: 20 μg/cm^2
T. ni moths; [15]
  pest or weed control at 0.25 %: 11.8 ± 13.1%
[2]; [16]
  mortality at 0.25 %: 22.6%
[2]; [9]
  % mortality: 23%

## CC(C)CCOc1ccc(OCCC(C)C)cc1 [3c{5,5}, 1,4-Di-(3-methyl-butyloxy)benzene]
[1]; [6]
  pest or weed control at 50 µg/cm2, 50 µg/cm2: 44 ± 18.3%

## C=CCOc1ccc(OCCCC)cc1 [3c{6,4}, 1-allyloxy-4-butoxy benzene]
[1]; [6]
  pest or weed control at 50 µg/cm2, 50 µg/cm2: 84 ± 10.7%
T. ni moths; [15]
  pest or weed control at 0.25 %: 16.8 ± 13.8%
[2]; [16]
  mortality at 0.25 %: 10%

## C=CCOc1ccc(OCC=C)cc1 [3c{6,6}, 1,4-Diallyloxy benzene]
[1]; [6]
  pest or weed control at 50 µg/cm2, 50 µg/cm2: 96.9 ± 3.6%
[1]
  pest or weed control at 50 µg/cm2: 97%
  DC50: 24 μg/cm^2
T. ni moths; [15]
  pest or weed control at 0.25 %: 14.1 ± 13.1%
[2]; [16]
  mortality at 0.25 %: 16%
[2]; [9]
  % mortality: 16%

## CCOc1ccc(OCC)cc1 [drawing 17]
[1]; 50 μg/cm^2
  Feeding deterrency: strong (Strong feeding deterrency, >80%)
T. ni moths
  Oviposition deterrency: strong (Strong oviposition deterrency, >50%)

## CCCOc1cccc(OCCC)c1 [drawing 18]
[1]; 50 μg/cm^2
  Feeding deterrency: strong (Strong feeding deterrency, >80%)
T. ni moths
  Oviposition deterrency: moderate (moderate, >25%)

## CCCOc1ccc(OCCC)cc1 [drawing 22]
[1]; 50 μg/cm^2
  Feeding deterrency: strong (Strong feeding deterrency, >80%)
T. ni moths
  Oviposition deterrency: weak (weak, >10%)

## C=CCOc1ccc(OCC=C)cc1 [drawing 23]
[1]; 50 μg/cm^2
  Feeding deterrency: strong (Strong feeding deterrency, >80%)
T. ni moths
  Oviposition deterrency: weak (weak, >10%)

## C=CCOc1ccc(OCCCC)cc1 [drawing 24]
[1]; 50 μg/cm^2
  Feeding deterrency: strong (Strong feeding deterrency, >80%)
T. ni moths
  Oviposition deterrency: weak (weak, >10%)

## butyl eugenol
T. ni moths; [14]
  % deterrence: 34 BL %
T. ni moths
  Index = deterrence/mortality: 2.2
[2]; in vivo
  % mortality: 15%

— patent publication US9125406B2, “Methods and compositions for control of cabbage looper, trichoplusia ni” (Simon Fraser University, priority 2008, dated 2015)
